Results on 5 molecules are retold here after EP1104674A1, “O,o'-dihydroxy azo dyes as medicinal components with TPO-agonistic or -synergetic activity” (Curacyte AG, priority 1999, dated 2001).

This test deals with T1, humanen mpl-Rezeptor (Homo sapiens, UniProt P40238).
T1 sequence (P40238 26-635): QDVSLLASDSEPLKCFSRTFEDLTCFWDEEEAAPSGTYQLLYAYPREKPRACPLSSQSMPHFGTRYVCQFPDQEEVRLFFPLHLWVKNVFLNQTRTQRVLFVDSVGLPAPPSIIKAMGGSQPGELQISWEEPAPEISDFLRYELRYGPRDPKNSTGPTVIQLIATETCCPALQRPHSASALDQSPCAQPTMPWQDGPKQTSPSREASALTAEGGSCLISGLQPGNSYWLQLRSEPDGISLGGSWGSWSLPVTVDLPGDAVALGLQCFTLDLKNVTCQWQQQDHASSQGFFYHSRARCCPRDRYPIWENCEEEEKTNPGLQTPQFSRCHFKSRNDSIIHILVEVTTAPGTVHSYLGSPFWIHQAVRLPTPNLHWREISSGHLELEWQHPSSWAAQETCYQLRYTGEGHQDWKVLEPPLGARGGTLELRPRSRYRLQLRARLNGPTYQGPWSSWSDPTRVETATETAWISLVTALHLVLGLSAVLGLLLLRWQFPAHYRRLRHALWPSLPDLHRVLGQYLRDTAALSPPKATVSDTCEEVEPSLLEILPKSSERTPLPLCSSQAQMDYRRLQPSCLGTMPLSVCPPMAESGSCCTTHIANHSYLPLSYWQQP
The test can be described thus: TPO-dependent cell proliferation test with BaF3 cells transfected with the human mpl receptor (BaF3/mpl), WST readout. It is filed as cell-based. As to conditions: BaF3-mpl Rezeptor Proliferationstest; 48 bis 72 h; half-maximal stimulation after background subtraction. From the text: Die Bioaktivität der erfindungsgemäßen Verbindungen kann mittels eines TPO-abhängigen Zellproliferationstests gemessen werden. Die Substanzen dürfen keine Wirkung auf die nicht transfektierten parenteralen BaF3 Zellen ausüben. Murine IL-3-abhängig wachsende BaF3 Zellen wurden mit dem humanen mpl-Rezeptor transfektiert. In Abwesenheit von IL-3 ist die Proliferation und das Überleben dieser Zellen abhängig von TPO. Die parentale, untransfektierte Zell-Linie reagiert nicht auf humanes TPO, proliferiert aber in Gegenwart von IL-3. Die Bestimmung der Zellproliferation erfolgt nach literaturbekannten Verfahren (WO 96/40750). Die chemischen Substanz-Bibliotheken wurden in Bioassays mit den beiden obigen Zell-Linien gescreent. Die Zellen wurden in Gegenwart von IL-3 (BaF3 parental) bzw. TPO (BaF3-mpl-Rezeptor tragend = BaF3/mpl) in RPMI 1640 Medium in Gegenwart von 10 % FCS (fetales Kälberserum) gezüchtet. Für den Test wurden die Zellen zweimal in IL-3 bzw. TPO freiem Medium gewaschen und im Medium, das kein TPO bzw. IL-3 enthielt, resuspendiert. Diese Zellsuspension wurde dann zur Vertiefung einer 96 Tüpfelplatte (Costar), die TPO oder IL-3 und/oder Verbindung enthielt, in einer Menge von 10^4 Zellen/Vertiefung zugegeben. Die Zellen wurden dann für 48 bis 72 h bei 37°C in einem CO2 Inkubator inkubiert. Die proliferative Aktivität wurde bestimmt durch die Zugabe von WST (WST: Zell-Proliferations-Reagens; BM-Katalog-Nr. 1644807 "Tetrazolium-Salz").WST wird von proliferierenden Zellen zu Formazan umgewandelt und diese Umwandlung, als Maß für die Proliferation wird mittels OD (OD: optical density) bei 570 nm in einem ELISA Platten Meßgerät bestimmt.
Zur Ermittlung der halbmaximalen Stimulation wurde vom maximal erzielten Signal der Background (Zellen ohne Substanz) abgezogen und dieser Wert durch 2 geteilt. Dieser Wert plus dem Background-Wert wurden dann zur Bestimmung der EC50 (halbmaximale excitatorv concentration; Substratkonzentration, bei der die Substanz ihre halbmaximale Wirksamkeit im BaF3-mpl Rezeptor Proliferationstest ausübt) herangezogen. In Tabelle 3 sind die EC50-Werte bespielhaft für drei untersuchte Verbindungen dargestellt.
Die untersuchten Verbindungen stimulieren die Proliferation von mit mpl-Rezepror transfektierten BaF3 Zellen in einer Dosis abhängigen Weise. Die Proliferation von parenteralen Zell-Linien wird nicht stimuliert. Auch in Abwesenheit von TPO stimulieren die Verbindungen die Proliferation der BaF3/mpl-Zellen in wochenlanger Kultur. Tabelle 3
As for `O=[N+]([O-])c1ccc2c(N=Nc3ccc4ccccc4c3O)c(O)cc(S(=O)(=O)O)c2c1` [Beispiel 9], the 50% effective concentration (EC50) was 1.37 µM.
To `O=[N+]([O-])c1ccc2c(N=Nc3c(O)ccc4ccccc34)c(O)cc(S(=O)(=O)O)c2c1` [Beispiel 12] belongs 1.59 µM; to `Cc1ccc(O)c(N=Nc2c(O)cc(S(=O)(=O)O)c3ccccc23)c1` [Beispiel 13], 5.58 µM.
In the case of `Cc1ccc(NC(=O)c2cc3ccccc3c(N=Nc3cc(S(=O)(=O)O)ccc3O)c2O)c(C)c1` [Beispiel 15], the EC50 was 4.48 µM.
Consider `O=S(=O)(O)c1cccc2c(O)c(N=Nc3ccc(C(F)(F)F)cc3O)ccc12` [Beispiel 20, 5-Hydroxy-6-(2-hydroxy-4-trifluormethyl-phenylazo)naphthalin-1-sulfonsäure], for which the EC50 was 0.0728 µM.
